Test results: patent publication US10004701B2, “Methods and compositions for treating infection” (UNIVERSITY OF ROCHESTER, priority 2012, dated 2018)
Where a name gives a salt, the structure may show the parent alone. Read-outs that look alike come from different tables or passages of the source.

Key:
Test in all cases: AK assay 384-well format, Prestwick library screening
E. faecium = type: cell-based, Enterococcus faecium; details: 50 μM final drug concentration; for fold induction at 50 µM: Enterococcus faecium, 3 h
[1] = test system: S. aureus strain USA300-0114; type: cell-based, Staphylococcus aureus; details: 50 μM final drug concentration; for fold induction at 50 µM: Staphylococcus aureus, USA300, 3 h
K. pneumoniae = type: cell-based, Klebsiella pneumoniae; details: 50 μM final drug concentration; for fold induction at 50 µM: Klebsiella pneumoniae, 3 h
[2] = test system: A. baumannii strain 98-37-09; type: cell-based, Acinetobacter baumannii; details: 50 μM final drug concentration; for fold induction at 50 µM: Acinetobacter baumannii, 983709, 3 h
P. aeruginosa = type: cell-based, Pseudomonas aeruginosa; details: 50 μM final drug concentration; for fold induction at 50 µM: Pseudomonas aeruginosa, 3 h
E. cloacae = type: cell-based, Enterobacter cloacae; details: 50 μM final drug concentration; for fold induction at 50 µM: Enterobacter cloacae, 3 h
E. coli = type: cell-based, Escherichia coli; details: 50 μM final drug concentration; for fold induction at 50 µM: Escherichia coli, 3 h
[3] = 384-well format, cutoff for positive-scoring molecules 3-fold increase, read-out: AK-based Prestwick Library Screening Results, E. faecium (increase in extracellular AK activity)
[4] = 384-well format, cutoff for positive-scoring molecules 3-fold increase, read-out: AK-based Prestwick Library Screening Results, S. aureus (increase in extracellular AK activity)
[5] = 384-well format, cutoff for positive-scoring molecules 3-fold increase, read-out: AK-based Prestwick Library Screening Results, K. pneumoniae (increase in extracellular AK activity)
[6] = 384-well format, cutoff for positive-scoring molecules 3-fold increase, read-out: AK-based Prestwick Library Screening Results, A. baumannii (increase in extracellular AK activity)
[7] = 384-well format, cutoff for positive-scoring molecules 3-fold increase, read-out: AK-based Prestwick Library Screening Results, P. aeruginosa (increase in extracellular AK activity)
[8] = 384-well format, cutoff for positive-scoring molecules 3-fold increase, read-out: AK-based Prestwick Library Screening Results, E. cloacae (increase in extracellular AK activity)
[9] = 384-well format, cutoff for positive-scoring molecules 3-fold increase, read-out: AK-based Prestwick Library Screening Results, E. coli (increase in extracellular AK activity)
[10] = planktonic, cutoff for positive 3-fold increase, read-out: AK-based Prestwick Library Screening Results, E. faecium (fold increase in extracellular AK activity)
[11] = planktonic, cutoff for positive 3-fold increase, read-out: AK-based Prestwick Library Screening Results, S. aureus (fold increase in extracellular AK activity)
[12] = planktonic, cutoff for positive 3-fold increase, read-out: AK-based Prestwick Library Screening Results, K. pneumoniae (fold increase in extracellular AK activity)
[13] = planktonic, cutoff for positive 3-fold increase, read-out: AK-based Prestwick Library Screening Results, A. baumannii (fold increase in extracellular AK activity)
[14] = planktonic, cutoff for positive 3-fold increase, read-out: AK-based Prestwick Library Screening Results, P. aeruginosa (fold increase in extracellular AK activity)
[15] = planktonic, cutoff for positive 3-fold increase, read-out: AK-based Prestwick Library Screening Results, E. cloacae (fold increase in extracellular AK activity)
[16] = planktonic, cutoff for positive 3-fold increase, read-out: AK-based Prestwick Library Screening Results, E. coli (fold increase in extracellular AK activity)

C=C1[C@H]2C[C@@]3([C@@H]1O)[C@@H](C[C@@H]2O)[C@]12[C@@H]4C[C@H]3[C@H]1N(CC)C[C@]4(C)CC[C@@H]2O [Napelline] was tested, and the “AK-based Prestwick Library Screening Results, E. faecium (fold increase in extracellular AK activity)” value (E. faecium; […]) was 1.0, the “AK-based Prestwick Library Screening Results, S. aureus (fold increase in extracellular AK activity)” value ([1]; […]) was 1.4 and the “AK-based Prestwick Library Screening Results, K. pneumoniae (fold increase in extracellular AK activity)” value (K. pneumoniae; […]) was 1.0. For the same molecule, the “AK-based Prestwick Library Screening Results, A. baumannii (fold increase in extracellular AK activity)” value ([2]; […]) was 1.0, the “AK-based Prestwick Library Screening Results, P. aeruginosa (fold increase in extracellular AK activity)” value (P. aeruginosa; […]) was 1.1 and the “AK-based Prestwick Library Screening Results, E. cloacae (fold increase in extracellular AK activity)” value (E. cloacae; […]) was 3.6. The “AK-based Prestwick Library Screening Results, E. coli (fold increase in extracellular AK activity)” value (E. coli; […]) was 1.3.

With c1ccc2c(CC3=NCCN3)cccc2c1 [Naphazoline hydrochloride] the fold induction at 50 µM (E. faecium; [3]) was 1.1, the fold induction at 50 µM [1, 4] was 1 and the fold induction at 50 µM (K. pneumoniae; [5]) was 0.8. For the same molecule, the fold induction at 50 µM [2, 6] was 1.1, the fold induction at 50 µM (P. aeruginosa; [7]) was 1 and the fold induction at 50 µM (E. cloacae; [8]) was 1.5. The fold induction at 50 µM (E. coli; [9]) was 1.3.

COc1ccc2cc([C@H](C)C(=O)O)ccc2c1 [Naproxen] showed a fold induction at 50 µM (E. faecium; [3]) of 1, a fold induction at 50 µM [1, 4] of 0.8 and a fold induction at 50 µM (K. pneumoniae; [5]) of 0.9. For the same molecule, the fold induction at 50 µM [2, 6] was 1.1, the fold induction at 50 µM (P. aeruginosa; [7]) was 1 and the fold induction at 50 µM (E. cloacae; [8]) was 1.4. For the same molecule, the fold induction at 50 µM (E. coli; [9]) was 1.2.

With O=C1C[C@@H](c2ccc(O)cc2)Oc2cc(O)cc(O)c21 [Naringenine] the fold induction at 50 µM (E. faecium; [10]) was 0.9, the fold induction at 50 µM [1, 11] was 0.5 and the fold induction at 50 µM (K. pneumoniae; [12]) was 0.9. It also gave a fold induction at 50 µM [2, 13] of 1.2, a fold induction at 50 µM (P. aeruginosa; [14]) of 1 and a fold induction at 50 µM (E. cloacae; [15]) of 1.5. For the same molecule, the fold induction at 50 µM (E. coli; [16]) was 1.1.

With C[C@@H]1O[C@@H](O[C@H]2[C@H](Oc3cc(O)c4c(c3)O[C@H](c3ccc(O)cc3)CC4=O)O[C@H](CO)[C@@H](O)[C@@H]2O)[C@H](O)[C@H](O)[C@H]1O [Naringin hydrate] the fold induction at 50 µM (E. faecium; [10]) was 1, the fold induction at 50 µM [1, 11] was 1.2 and the fold induction at 50 µM (K. pneumoniae; [12]) was 0.9. The fold induction at 50 µM [2, 13] was 1.2, the fold induction at 50 µM (P. aeruginosa; [14]) was 1.3 and the fold induction at 50 µM (E. cloacae; [15]) was 1.2. It also gave a fold induction at 50 µM (E. coli; [16]) of 1.3.

CN1CCOC(c2ccccc2)c2ccccc2C1 (stereo not drawn) [Nefopam hydrochloride] was tested, and the fold induction at 50 µM (E. faecium; planktonic E. faecium, 384-well, cutoff for positive-scoring molecules 3-fold increase, read-out: AK-based Prestwick Library Screening Results: E. faecium (increase in extracellular AK activity)) was 1, the fold induction at 50 µM ([1]; planktonic S. aureus, 384-well, cutoff for positive-scoring molecules 3-fold increase, read-out: AK-based Prestwick Library Screening Results: S. aureus (increase in extracellular AK activity)) was 1.1 and the fold induction at 50 µM (K. pneumoniae; planktonic K. pneumoniae, 384-well, cutoff for positive-scoring molecules 3-fold increase, read-out: AK-based Prestwick Library Screening Results: K. pneumoniae (increase in extracellular AK activity)) was 0.9. It also gave a fold induction at 50 µM ([2]; planktonic A. baumannii, 384-well, cutoff for positive-scoring molecules 3-fold increase, read-out: AK-based Prestwick Library Screening Results: A. baumannii (increase in extracellular AK activity)) of 1.4, a fold induction at 50 µM (P. aeruginosa; planktonic P. aeruginosa, 384-well, cutoff for positive-scoring molecules 3-fold increase, read-out: AK-based Prestwick Library Screening Results: P. aeruginosa (increase in extracellular AK activity)) of 1.2 and a fold induction at 50 µM (E. cloacae; planktonic E. cloacae, 384-well, cutoff for positive-scoring molecules 3-fold increase, read-out: AK-based Prestwick Library Screening Results: E. cloacae (increase in extracellular AK activity)) of 1.4. It also gave a fold induction at 50 µM (E. coli; planktonic E. coli, 384-well, cutoff for positive-scoring molecules 3-fold increase, read-out: AK-based Prestwick Library Screening Results: E. coli (increase in extracellular AK activity)) of 1.2.

In the case of NC[C@@H]1O[C@H](O[C@H]2[C@@H](O)[C@H](O[C@@H]3[C@@H](O)[C@H](N)C[C@H](N)[C@H]3O[C@H]3O[C@H](CN)[C@@H](O)[C@H](O)[C@H]3N)O[C@@H]2CO)[C@H](N)[C@@H](O)[C@@H]1O.O=S(=O)(O)O [Neomycin sulfate], the “AK-based Prestwick Library Screening Results: E. faecium (increase in extracellular AK activity)” value (E. faecium; planktonic E. faecium, 384-well, cutoff for positive-scoring molecules 3-fold increase) is reported as 1.0, the “AK-based Prestwick Library Screening Results: S. aureus (increase in extracellular AK activity)” value ([1]; planktonic S. aureus, 384-well, cutoff for positive-scoring molecules 3-fold increase) is reported as 1.1 and the “AK-based Prestwick Library Screening Results: K. pneumoniae (increase in extracellular AK activity)” value (K. pneumoniae; planktonic K. pneumoniae, 384-well, cutoff for positive-scoring molecules 3-fold increase) is reported as 1.0. The “AK-based Prestwick Library Screening Results: A. baumannii (increase in extracellular AK activity)” value ([2]; planktonic A. baumannii, 384-well, cutoff for positive-scoring molecules 3-fold increase) was 1.4, the “AK-based Prestwick Library Screening Results: P. aeruginosa (increase in extracellular AK activity)” value (P. aeruginosa; planktonic P. aeruginosa, 384-well, cutoff for positive-scoring molecules 3-fold increase) was 0.9 and the “AK-based Prestwick Library Screening Results: E. cloacae (increase in extracellular AK activity)” value (E. cloacae; planktonic E. cloacae, 384-well, cutoff for positive-scoring molecules 3-fold increase) was 1.3. The “AK-based Prestwick Library Screening Results: E. coli (increase in extracellular AK activity)” value (E. coli; planktonic E. coli, 384-well, cutoff for positive-scoring molecules 3-fold increase) was 1.2.

CN(C)C(=O)Oc1cccc([N+](C)(C)C)c1 [Neostigmine bromide] showed a fold induction at 50 µM (E. faecium; planktonic, […], read-out: AK-based Prestwick Library Screening Results, E. faecium (fold increase in extracellular AK activity)) of 1, a fold induction at 50 µM ([1]; planktonic, […], read-out: AK-based Prestwick Library Screening Results, S. aureus (fold increase in extracellular AK activity)) of 1.2 and a fold induction at 50 µM (K. pneumoniae; planktonic, […], read-out: AK-based Prestwick Library Screening Results, K. pneumoniae (fold increase in extracellular AK activity)) of 1. The fold induction at 50 µM ([2]; planktonic, […], read-out: AK-based Prestwick Library Screening Results, A. baumannii (fold increase in extracellular AK activity)) was 1.3, the fold induction at 50 µM (P. aeruginosa; planktonic, […], read-out: AK-based Prestwick Library Screening Results, P. aeruginosa (fold increase in extracellular AK activity)) was 1.1 and the fold induction at 50 µM (E. cloacae; planktonic, […], read-out: AK-based Prestwick Library Screening Results, E. cloacae (fold increase in extracellular AK activity)) was 1.2. It also gave a fold induction at 50 µM (E. coli; planktonic, […], read-out: AK-based Prestwick Library Screening Results, E. coli (fold increase in extracellular AK activity)) of 1.3.

O=C(O)c1cccnc1 [Niacin] gave a fold induction at 50 µM (E. faecium; planktonic, cutoff for positive-scoring molecules 3-fold increase, read-out: AK-based Prestwick Library Screening Results, E. faecium (fold increase in extracellular AK activity)) of 0.9, a fold induction at 50 µM ([1]; planktonic, cutoff for positive-scoring molecules 3-fold increase, read-out: AK-based Prestwick Library Screening Results, S. aureus (fold increase in extracellular AK activity)) of 0.6 and a fold induction at 50 µM (K. pneumoniae; planktonic, cutoff for positive-scoring molecules 3-fold increase, read-out: AK-based Prestwick Library Screening Results, K. pneumoniae (fold increase in extracellular AK activity)) of 0.5. The fold induction at 50 µM ([2]; planktonic, cutoff for positive-scoring molecules 3-fold increase, read-out: AK-based Prestwick Library Screening Results, A. baumannii (fold increase in extracellular AK activity)) was 0.6, the fold induction at 50 µM (P. aeruginosa; planktonic, cutoff for positive-scoring molecules 3-fold increase, read-out: AK-based Prestwick Library Screening Results, P. aeruginosa (fold increase in extracellular AK activity)) was 0.6 and the fold induction at 50 µM (E. cloacae; planktonic, cutoff for positive-scoring molecules 3-fold increase, read-out: AK-based Prestwick Library Screening Results, E. cloacae (fold increase in extracellular AK activity)) was 0.7. The fold induction at 50 µM (E. coli; planktonic, cutoff for positive-scoring molecules 3-fold increase, read-out: AK-based Prestwick Library Screening Results, E. coli (fold increase in extracellular AK activity)) was 0.7.
